The subject of experiment [1] is barnyard grass (Enchinochloa crusgalli) (ECHCG). Description: post-emergent herbicidal test, barnyard grass. In kind it is in vivo. The note with it: Echinochloa crus-galli, post-emergence, read-out: ECHCG percent control. A digest of the protocol:
(§1)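 Greenhouse seedlings (14 h photoperiod, 29 °C day, 21 °C night) received compound at 1 or 4 kg/ha with Tween 20 surfactant. Weed control, as % of total injury versus untreated plants, was recorded at 17–21 days.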

Experiment [2] has as its system morningglory (Ipomoea spp.) (IPOSS). Description: post-emergent herbicidal test, morningglory. The format is in vivo. The note with it: Ipomoea, post-emergence, read-out: IPOSS percent control. A digest of the protocol: as §1
Experiment [3] relates to farnesyl pyrophosphate synthase in daffodil chromoplasts. Description: inhibition of farnesyl pyrophosphate synthase in daffodil chromoplasts (14C-isopentenyl pyrophosphate incorporation). The note with it: unit inferred, IC50 values in nM, read-out: IC50. The format is biochemical, Narcissus pseudonarcissus. A digest of the protocol: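 Daffodil chromoplasts in pH 7.7 sucrose/MgCl2/HEPES buffer with cysteine, NaF and BSA, started with ~3 micromolar 14C-isopentenyl pyrophosphate, 30 min at 30° C. Butanol-extractable radioactivity counted by scintillation; % residual activity calculated against zero-time and end-point no-inhibitor controls.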

Experiment [4] relates to wild oat (Avena fatua) (AVEFA). Description: post-emergent herbicidal test, wild oat. The format is in vivo. As to conditions: Avena fatua, post-emergence, read-out: AVEFA percent control. A digest of the protocol: as §1
In experiment [5] the test system is wild mustard (Brassica kaber), also known as Sinapis arvensis (SINAR). Description: post-emergent herbicidal test, wild mustard. The format is in vivo. The note with it: Brassica, post-emergence, read-out: SINAR percent control. A digest of the protocol: as §1
The subject of experiment [6] is green foxtail (Setaria viridis) (SETVI). Description: post-emergent herbicidal test, green foxtail. In kind it is in vivo. The note with it: Setaria viridis, post-emergence, read-out: SETVI percent control. A digest of the protocol:
as §1

For experiment [7], the system named is yellow nutsedge (Cyperus esculentus) (CYPES). Description: post-emergent herbicidal test, yellow nutsedge. In kind it is in vivo. As to conditions: Cyperus, post-emergence, read-out: CYPES percent control. Summed up: as §1
Experiment [8] relates to velvetleaf (Abutilon theophrasti) (ABUTH). Description: post-emergent herbicidal test, velvetleaf. In kind it is in vivo. As to conditions: Abutilon theophrasti, post-emergence, read-out: ABUTH percent control. A digest of the protocol:
as §1

[9] abbreviates: post-emergent, 1.0 kg/ha (*), 17-21 days after application.

Where two headings read alike, the source gives them in different places.

The IC50 is the concentration that inhibits the measured activity by half. In the case of `O=P(O)(O)C(CNCC(F)(F)F)P(=O)(O)O` [Compound 39], the pest or weed control at 1000 g/ha is 0% in experiment [1] (setting [9]); 0% in experiment [2] (setting [9]); 20% in experiment [4] (setting [9]); 0% in experiment [5] (setting [9]); 5% in experiment [6] (setting [9]); 0% in experiment [7] (setting [9]). Also, the pest or weed control at 1000 g/ha in experiment [8] (setting [9]) was determined as 0%. Besides, the IC50 in experiment [3] (Table I) and in experiment [3] (Table II) was 380 nM throughout.

As for `C=CCN(CC)CC(P(=O)(O)O)P(=O)(O)O` [Compound 40], the pest or weed control at 1000 g/ha turned out to be 90% in experiment [1] (setting [9]); 10% in experiment [2] (setting [9]); 85% in experiment [4] (setting [9]); 95% in experiment [5] (setting [9]); 80% in experiment [6] (setting [9]); 10% in experiment [7] (setting [9]). The pest or weed control at 1000 g/ha in experiment [8] (setting [9]) turned out to be 10%. The IC50 in experiment [3] (Table I) and in experiment [3] (Table II) was 88 nM throughout.

As for `C=CCN(C)CC(P(=O)(O)O)P(=O)(O)O` [Compound 41], the pest or weed control at 1000 g/ha in experiment [1] (setting [9]) worked out at 95%; in experiment [2] (setting [9]), 85%; in experiment [4] (setting [9]), 100%; in experiment [5] (setting [9]), 100%; in experiment [6] (setting [9]), 95%; in experiment [7] (setting [9]), 60%. The pest or weed control at 1000 g/ha in experiment [8] (setting [9]) worked out at 85%. In addition, the half-maximal inhibitory concentration (IC50) in experiment [3] (Table I) and in experiment [3] (Table II) was 60 nM throughout.

As for `O=P(O)(O)C(CNC1CC1)P(=O)(O)O` [Compound 42], the pest or weed control at 1000 g/ha in experiment [1] came out at 95%; in experiment [2], 90%; in experiment [4], 100%; in experiment [5] it was 100%; in experiment [6], 95%; in experiment [7], 20%. The pest or weed control at 1000 g/ha in experiment [8] was 10%. Moreover, the IC50 in experiment [3] (Table I) and in experiment [3] (Table II) was 27 nM each time.

In the case of `CC1CCCN1CC(P(=O)(O)O)P(=O)(O)O` (stereo not drawn) [Compound 43], the pest or weed control at 1000 g/ha was 98% in experiment [1] (setting [9]); 60% in experiment [2] (setting [9]); 100% in experiment [4] (setting [9]); 100% in experiment [5] (setting [9]); 98% in experiment [6] (setting [9]); 5% in experiment [7] (setting [9]). Moreover, the pest or weed control at 1000 g/ha in experiment [8] (setting [9]) came to 30%. The IC50 in experiment [3] (Table I) and in experiment [3] (Table II) was 93 nM throughout.

In the case of `CC(NCC(P(=O)(O)O)P(=O)(O)O)c1ccc(F)cc1` (stereo not drawn) [Compound 44], the pest or weed control at 1000 g/ha in experiment [1] (setting [9]) was 100%; in experiment [2] (setting [9]), 10%; in experiment [4] (setting [9]), 90%; in experiment [5] (setting [9]), 90%; in experiment [6] (setting [9]), 100%; in experiment [7] (setting [9]), 60%. Further, the pest or weed control at 1000 g/ha in experiment [8] (setting [9]) amounted to 60%. The half-inhibitory concentration (IC50) in experiment [3] (Table I) and in experiment [3] (Table II) was 2510 nM each time.

For the molecule `O=P(O)(O)C(CN1CC=CCC1)P(=O)(O)O` [Compound 45], the pest or weed control at 1000 g/ha in experiment [1] (setting [9]) was 100%; in experiment [2] (setting [9]), 100%; in experiment [4] (setting [9]), 100%; in experiment [5] (setting [9]), 100%; in experiment [6] (setting [9]) it was 100%; in experiment [7] (setting [9]), 50%. In addition, the pest or weed control at 1000 g/ha in experiment [8] (setting [9]) is 90%. Besides, the half-maximal inhibitory concentration (IC50) in experiment [3] (Table I) and in experiment [3] (Table II) was 26 nM in each case.

Take `O=P(O)(O)C(CNC1Cc2ccccc2C1)P(=O)(O)O` [Compound 46]: the pest or weed control at 1000 g/ha in experiment [1] (setting [9]) amounted to 15%; in experiment [2] (setting [9]) it was 0%; in experiment [4] (setting [9]), 50%; in experiment [5] (setting [9]), 5%; in experiment [6] (setting [9]), 20%; in experiment [7] (setting [9]), 10%. In experiment [8] (setting [9]), the pest or weed control at 1000 g/ha turned out to be 5%. The 50% inhibitory concentration (IC50) in experiment [3] (Table I) and in experiment [3] (Table II) was 440 nM in each case.

Turning to `CC1(C)CCCN(CC(P(=O)(O)O)P(=O)(O)O)C1` [Compound 47], the pest or weed control at 1000 g/ha in experiment [1] (setting [9]) amounted to 0%; in experiment [2] (setting [9]), 0%; in experiment [4] (setting [9]) it was 0%; in experiment [5] (setting [9]), 5%; in experiment [6] (setting [9]), 10%; in experiment [7] (setting [9]), 0%. For the same molecule, in experiment [8] (setting [9]), the pest or weed control at 1000 g/ha worked out at 0%. In addition, the IC50 in experiment [3] (Table I) and in experiment [3] (Table II) was 2280 nM throughout.

On to `CCC(C)NCC(P(=O)(O)O)P(=O)(O)O` (stereo not drawn) [Compound 48], for which the pest or weed control at 1000 g/ha in experiment [1] (setting [9]) turned out to be 98%; in experiment [2] (setting [9]), 95%; in experiment [4] (setting [9]), 100%; in experiment [5] (setting [9]), 100%; in experiment [6] (setting [9]), 95%; in experiment [7] (setting [9]), 50%. Further, the pest or weed control at 1000 g/ha in experiment [8] (setting [9]) was 60%. The concentration for half-maximal inhibition (IC50) in experiment [3] (Table I) and in experiment [3] (Table II) was 32 nM throughout.

On to `O=P(O)(O)C(CNC1CCc2ccccc21)P(=O)(O)O` (stereo not drawn) [Compound 49], for which the pest or weed control at 1000 g/ha in experiment [1] (setting [9]) stood at 50%; in experiment [2] (setting [9]) it was 10%; in experiment [4] (setting [9]) it was 60%; in experiment [5] (setting [9]) it was 10%; in experiment [6] (setting [9]), 15%; in experiment [7] (setting [9]), 10%. Moreover, the pest or weed control at 1000 g/ha in experiment [8] (setting [9]) was 5%. Further, the IC50 in experiment [3] (Table I) and in experiment [3] (Table II) was 1730 nM each time.

Turning to `CC1CCCC1NCC(P(=O)(O)O)P(=O)(O)O` (stereo not drawn) [Compound 50], the pest or weed control at 1000 g/ha is 60% in experiment [1] (setting [9]); 5% in experiment [2] (setting [9]); 50% in experiment [4] (setting [9]); 85% in experiment [5] (setting [9]); 85% in experiment [6] (setting [9]); 5% in experiment [7] (setting [9]). Besides, the pest or weed control at 1000 g/ha in experiment [8] (setting [9]) came out at 5%. Further, the IC50 in experiment [3] (Table I) and in experiment [3] (Table II) was 232 nM each time.

As for `CCCN(CC(C)C)CC(P(=O)(O)O)P(=O)(O)O` [Compound 51], the pest or weed control at 1000 g/ha came to 98% in experiment [1] (setting [9]); 15% in experiment [2] (setting [9]); 100% in experiment [4] (setting [9]); 100% in experiment [5] (setting [9]); 98% in experiment [6] (setting [9]); 5% in experiment [7] (setting [9]). Also, the pest or weed control at 1000 g/ha in experiment [8] (setting [9]) worked out at 70%. Also, the IC50 in experiment [3] (Table I) and in experiment [3] (Table II) was 91 nM each time.

`CCCCN(CCC)CC(P(=O)(O)O)P(=O)(O)O` [Compound 52]: the pest or weed control at 1000 g/ha is 100% in experiment [1] (setting [9]); 20% in experiment [2] (setting [9]); 100% in experiment [4] (setting [9]); 100% in experiment [5] (setting [9]); 100% in experiment [6] (setting [9]); 20% in experiment [7] (setting [9]). In experiment [8] (setting [9]), the pest or weed control at 1000 g/ha turned out to be 75%. Moreover, the half-maximal inhibitory concentration (IC50) in experiment [3] (Table I) and in experiment [3] (Table II) was 87 nM each time.

As to `CCC1CCCCN1CC(P(=O)(O)O)P(=O)(O)O` (stereo not drawn) [Compound 53], the pest or weed control at 1000 g/ha is 100% in experiment [1] (setting [9]); 30% in experiment [2] (setting [9]); 98% in experiment [4] (setting [9]); 90% in experiment [5] (setting [9]); 98% in experiment [6] (setting [9]); 5% in experiment [7] (setting [9]). Moreover, the pest or weed control at 1000 g/ha in experiment [8] (setting [9]) turned out to be 70%. In addition, the IC50 in experiment [3] (Table I) and in experiment [3] (Table II) was 112 nM in each case.

With `CCCN(CCC(=O)O)CC(P(=O)(O)O)P(=O)(O)O` [Compound 54], the pest or weed control at 1000 g/ha is 0% in experiment [1] (setting [9]); 5% in experiment [2] (setting [9]); 0% in experiment [4] (setting [9]); 10% in experiment [5] (setting [9]); 10% in experiment [6] (setting [9]); 0% in experiment [7] (setting [9]). For the same molecule, the pest or weed control at 1000 g/ha in experiment [8] (setting [9]) turned out to be 0%. The IC50 in experiment [3] (Table I) and in experiment [3] (Table II) was 479 nM in each case.

The values above are taken from patent US5756423A, “Method of controlling plants by inhibition of farnesyl pyrophosphate synthase” (Zeneca Limited, priority 1997, dated 1998).
